Data set [1] can be described thus: Antagonist activity at folate receptor in human KB cells after 2 hrs in presence of 100 uM folic acid. The format is cell-based.
Data set [2] in a line: Antagonist activity at folate receptor in human KB cells after 2 hrs. In kind it is cell-based.
Data set [3] is described as follows: Toxicity in mouse xenografted with FR-positive human KB cells assessed as body weight loss at 2 umol/kg administered as single dose for 1 week. In kind it is cell-based. The conditions noted are these: in vivo, 168 h. A general note: In xenograft studies the graft and the host belong to different species.
Data set [4] has as its system KB. The data set can be described thus: Antitumor activity against FR-positive human KB cells xenografted in nu/nu mouse assessed as reduction in tumor growth at 2 umol/kg administered as single dose for 1 week. The format is functional, cell-based.
Data set [5] is described as follows: Toxicity in mouse xenografted with FR-positive human KB cells assessed as body weight loss at 300 nmol/kg administered as single dose and measured up to 96 days post tumor implantation. The format is cell-based. The conditions noted are these: in vivo, 2304 h.
For data set [6], the system named is KB. The experiment in a line: Antitumor activity against FR-positive human KB cells xenografted in nu/nu mouse at 300 nmol/kg administered as single dose for 1 week. In kind it is functional, cell-based.
Data set [7] can be described thus: Toxicity in mouse xenografted with FR-positive human KB cells assessed as tissue degeneration at 300 nmol/kg administered as single dose for 1 week. The format is cell-based. The note with it: in vivo, 168 h.

Each structure is given as a SMILES string. Calls of active or inactive are those of the source. The rule behind the calls is not given here.

As to `C=C1C[C@@H](C2OCCN2C(=O)OCCSSC[C@@H](NC(=O)[C@H](CCC(=O)NC[C@H](O)[C@@H](O)[C@H](O)[C@H](O)CO)NC(=O)[C@@H](CCC(=O)O)NC(=O)[C@H](CCC(=O)NC[C@H](O)[C@@H](O)[C@H](O)[C@H](O)CO)NC(=O)[C@@H](CCC(=O)O)NC(=O)[C@H](CCC(=O)NC[C@H](O)[C@@H](O)[C@H](O)[C@H](O)CO)NC(=O)CC[C@H](NC(=O)c2ccc(NCc3cnc4nc(N)[nH]c(=O)c4n3)cc2)C(=O)O)C(=O)O)N(C(=O)c2cc(OC)c(OCCCCCOc3ccc(-c4nc5ccc(-c6nc7cc(N8CCN(C)CC8)ccc7[nH]6)cc5[nH]4)cc3)cc2N)C1` (some centres undefined), the IC50 (usually the point on the concentration scale where inhibition reaches its midpoint) in data set [1] was 84.3 nM; in data set [2], 0.658 nM. Moreover, in data set [3], the Activity entry was “Toxic”. Also, in the data set with KB [4], the outcome was Active.

As for `C=C1C[C@@H](C2OCCN2C(=O)OCCSSC[C@@H](NC(=O)[C@H](CCC(=O)NC[C@H](O)[C@@H](O)[C@H](O)[C@H](O)CO)NC(=O)[C@@H](CCC(=O)O)NC(=O)[C@H](CCC(=O)NC[C@H](O)[C@@H](O)[C@H](O)[C@H](O)CO)NC(=O)[C@@H](CCC(=O)O)NC(=O)[C@H](CCC(=O)NC[C@H](O)[C@@H](O)[C@H](O)[C@H](O)CO)NC(=O)CC[C@H](NC(=O)c2ccc(NCc3cnc4nc(N)[nH]c(=O)c4n3)cc2)C(=O)O)C(=O)O)N(C(=O)c2cc(OC)c(OCCCCCOc3cc(N)c(C(=O)N4CC(=C)C[C@H]4C4OCCN4C(=O)OCCSSc4ccccn4)cc3OC)cc2N)C1` (some centres undefined), the IC50 in data set [1] stood at 184 nM; in data set [2] it was 1.31 nM. Further, in the data set on KB [4], the result was Active.

As to `C=C1C[C@H]2C=Nc3cc(OCCCCCOc4cc(N)c(C(=O)N5CC(=C)C[C@H]5C5OCCN5C(=O)OCC(C)(C)SSCCC(=O)NCCNC(=O)CCOCCOCCOCCOCCNC(=O)CCN5C(=O)CC(SC[C@H](NC(=O)[C@H](CC(=O)O)NC(=O)[C@H](CC(=O)O)NC(=O)[C@H](CCCNC(=N)N)NC(=O)[C@H](CC(=O)O)NC(=O)CC[C@H](NC(=O)c6ccc(NCc7cnc8nc(N)[nH]c(=O)c8n7)cc6)C(=O)O)C(=O)O)C5=O)cc4OC)c(OC)cc3C(=O)N2C1` (some centres undefined), the values for the IC50 in data set [1] and in data set [2] were 3.78 nM and 0.0522 nM, respectively. Besides, the Activity entry in data set [5] and in data set [7] was “Toxic” each time. The outcome in the data set with KB [6] was Active.

Take `C=C1C[C@H]2C(=O)Nc3cc(OCCCCCOc4cc(N)c(C(=O)N5CC(=C)C[C@H]5C5OCCN5C(=O)OCCSSC[C@H](NC(=O)[C@H](CC(=O)O)NC(=O)[C@H](CC(=O)O)NC(=O)[C@H](CCCNC(=N)N)NC(=O)[C@H](CC(=O)O)NC(=O)CC[C@H](NC(=O)c5ccc(NCc6cnc7nc(N)[nH]c(=O)c7n6)cc5)C(=O)O)C(=O)O)cc4OC)c(OC)cc3C(=O)N2C1` (some centres undefined): the IC50 worked out at 696 nM in data set [1] and 1.12 nM in data set [2].

(Values after ChEMBL document CHEMBL4616618, “Design and synthesis of a folate-receptor targeted diazepine-ring-opened pyrrolobenzodiazepine prodrug conjugate” (Bioorg Med Chem Lett, 2020).)
